Data reported in US20240287022A1 (Merck Sharp & Dohme LLC, priority 2021, published 2024).

Molecular target: recombinant IL4I1 (Homo sapiens (Human), UniProt Q96RQ9)
Assay: IL4I1 Enzymatic Assay (Amplex Red/HRP coupled H2O2 detection)
Format: biochemical
Conditions: 1 nM IL4I1, 1 mM each Phe/Tyr/Trp, four-hour pre-incubation, 120 minutes reaction, top compound concentration of 10000 nM
Protocol: Interleukin 4 inducible protein 1 (IL4I1) is an L-amino oxidase that catalyzes the oxidation of aromatic residues (Phe, Trp and Tyr): L-amino acid+H2O+O2→2-oxo acid+NH3+H2O2. Equal molar of H2O2 and the corresponding alpha-ketoacid are produced when IL4I1 and substrate are added. In this assay, the hydrogen peroxide generated by IL4I1 are then detected through a coupled reaction with Amplex Red (10-acetyl-3,7-dihydroxyphenoxazine) and […] (HRP) to produce Resorufin product that could be detected in the form of fluorescence signals. The assessment of the inhibitory effect of small molecules (EC50) on IL4I1 is measured by the effectiveness of the compounds to inhibit the production of H2O2.
Using this assay, the potency (EC50) of each compound was determined from a ten-point (1:3 serial dilution; top compound concentration of 10000 nM) titration curve using the following outlined procedure. To each well of a black flat-bottom Greiner (Cat #781076) 384 well-plate, 25 nL of compound (0.1% DMSO in final assay volume of 25 μL) was dispensed, followed by the addition of 12.5 μL of 1× assay buffer (50 mM Hepes 7.0 and 0.005% Tween20 (Sigma, Cat #P8341; low peroxide grade)) containing 2 nM of recombinant IL4I1 (R&D Systems, Cat #5684-AO-020). Plates were placed in an ambient temperature humidified chamber for a four-hour pre-incubation with compound. Subsequently, each reaction was initiated by the addition of 12.5 μL 1× assay buffer containing 2 mM of each aromatic amino acids (Phe/Tyr/Trp), 0.1 mM Amplex Red and 2 U/mL of HRP. The final reaction in each well of 25 μL consists of 1 nM of IL4I1, 1 mM of each residues (Phe, Tyr and Trp), 0.05 mM Amplex Red and 1 U/mL of HRP. It should be noted that the concentrations of Amplex Red and HRP used here are in excess such that the conversion of H2O2 to Resorufin product occurs instantaneously and non-rate limiting. Reactions were allowed to proceed for 120 minutes followed by fluorescence readout on a Spectramax with the following set parameters: 544 nm excitation/590 nm emission, 570 nm cutoff (EnVision is an alternative reader). Dose-response curves were generated by plotting percent effect (% product conversion; Y-axis) vs. Log10 compound concentrations (X-axis). EC50 values were calculated using a non-linear regression, four-parameters sigmoidal dose-response model.

Chain of recombinant IL4I1 (Q96RQ9 22-567): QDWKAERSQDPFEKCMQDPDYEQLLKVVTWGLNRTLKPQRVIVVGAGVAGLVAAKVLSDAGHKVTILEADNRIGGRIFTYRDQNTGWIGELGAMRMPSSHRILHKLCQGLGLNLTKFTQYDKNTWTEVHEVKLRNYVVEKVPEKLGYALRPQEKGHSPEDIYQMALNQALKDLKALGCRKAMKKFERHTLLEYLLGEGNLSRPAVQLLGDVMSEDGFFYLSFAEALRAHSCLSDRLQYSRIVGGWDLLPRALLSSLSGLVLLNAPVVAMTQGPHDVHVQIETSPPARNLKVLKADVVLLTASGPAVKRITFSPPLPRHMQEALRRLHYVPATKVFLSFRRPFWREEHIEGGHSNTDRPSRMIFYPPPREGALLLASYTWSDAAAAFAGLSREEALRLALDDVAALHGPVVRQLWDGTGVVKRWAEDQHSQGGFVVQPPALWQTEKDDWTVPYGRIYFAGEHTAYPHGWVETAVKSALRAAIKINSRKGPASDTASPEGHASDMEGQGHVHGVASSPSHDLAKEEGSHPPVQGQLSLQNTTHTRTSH

SMILES	EC50
Cc1c(Cc2cc3ccccc3[nH]c2=O)cnn1C [Example 109, 3-((1,5-dimethyl-1H-pyrazol-4-yl)methyl)quinolin-2(1H)-one]	39.9 nM
N#Cc1ccc2[nH]c(=O)c(Cc3ccccc3)cc2c1 [Example 174, 3-Benzyl-2-oxo-1,2-dihydroquinoline-6-carbonitrile]	10000 nM
O=C1COc2c(Cc3cc4cccc5c4n(c3=O)CCC5)cccc2N1 [Example 149, 8-((5-oxo-2,3-dihydro-1H,5H-pyrido[3,2,1-ij]quinolin-6-yl)methyl)-2H-benzo[b][1,4]oxazin-3(4H)-one]	150 nM
Cc1nn(C)cc1-c1nnc(Cc2cc3ccccc3[nH]c2=O)o1 [Example 36, 3-((5-(1,3-dimethyl-1H-pyrazol-4-yl)-1,3,4-oxadiazol-2-yl)methyl)quinolin-2(1H)-one]	30.7 nM
CC(=O)NCc1ccc(Cc2cc3ccccc3n(C)c2=O)cc1 [Example 151, N-(4-((1-Methyl-2-oxo-1,2-dihydroquinolin-3-yl)methyl)benzyl)acetamide]	3.3 nM
O=c1[nH]c2ccccc2cc1Cc1cnn2c1CCC2 [Example 135, 3-((5,6-dihydro-4H-pyrrolo[1,2-b]pyrazol-3-yl)methyl)quinolin-2(1H)-one]	11.3 nM
CC1(c2nnc(Cc3cc4ccccc4[nH]c3=O)o2)CC1 [Example 42, 3-((5-(1-methylcyclopropyl)-1,3,4-oxadiazol-2-yl)methyl)quinolin-2(1H)-one]	21 nM
Cc1onc(-c2nnc(Cc3cc4ccccc4[nH]c3=O)o2)c1C [Example 14, 3-((5-(4,5-dimethylisoxazol-3-yl)-1,3,4-oxadiazol-2-yl)methyl)quinolin-2(1H)-one]	150 nM
O=c1[nH]c2ccccc2cc1Cc1nnc(-c2ccc(C(F)(F)F)cc2)o1 [Example 7, 3-((5-(4-(trifluoromethyl)phenyl)-1,3,4-oxadiazol-2-yl)methyl)quinolin-2(1H)-one]	82.2 nM
O=C1OCCN1c1ccc(Cc2cc3cnccc3[nH]c2=O)cc1 [Example 61, 3-(4-((2-oxo-1,2-dihydro-1,6-naphthyridin-3-yl)methyl)phenyl)oxazolidin-2-one]	2.7 nM

Continued, values first:

EC50	SMILES
30.4 nM	CC(=O)NCc1cccc(Cc2cc3ccccc3[nH]c2=O)c1 [Example 128, N-(3-((2-oxo-1,2-dihydroquinolin-3-yl)methyl)benzyl)acetamide]
1 nM	N#CC1(c2ccc(Cc3cc4ccccc4[nH]c3=O)cc2)CC1 [Example 98, 1-(4-((2-oxo-1,2-dihydroquinolin-3-yl)methyl)phenyl)cyclopropane-1-carbonitrile]
21.4 nM	CS(=O)(=O)Nc1ccc(Cc2cc3ccccc3[nH]c2=O)cn1 [Example 48, N-(5-((2-oxo-1,2-dihydroquinolin-3-yl)methyl)pyridin-2-yl)methanesulfonamide]
2.7 nM	O=c1[nH]c2ccccc2cc1Cc1ccc(C(O)C(F)(F)F)cc1 (racemic) [Example 126, rac-3-(4-(2,2,2-trifluoro-1-hydroxyethyl)benzyl)quinolin-2(1H)-one]
5.9 nM	O=c1[nH]c2ccccc2cc1Cc1ccc(N2CCCS2(=O)=O)nc1 [Example 46, 3-((6-(1,1-dioxidoisothiazolidin-2-yl)pyridin-3-yl)methyl)quinolin-2(1H)-one]
2.2 nM	NS(=O)(=O)Cc1ccc(Cc2cc3ccccc3[nH]c2=O)cc1 [Example 72, (4-((2-oxo-1,2-dihydroquinolin-3-yl)methyl)phenyl)methanesulfonamide]
6.9 nM	COc1cc(CNS(C)(=O)=O)ccc1Cc1cc2ccccc2[nH]c1=O [Example 74, N-(3-methoxy-4-((2-oxo-1,2-dihydroquinolin-3-yl)methyl)benzyl)methanesulfonamide]
2.5 nM	O=C1CCC(c2ccc(Cc3cc4ccccc4[nH]c3=O)cc2Cl)N1 (stereo not drawn) [Example 181, 3-(3-chloro-4-(5-oxopyrrolidin-2-yl)benzyl)quinolin-2(1H)-one]
